Measured values taken from ChEMBL document CHEMBL3593188, “Exploring the size adaptability of the B ring binding zone of the colchicine site of tubulin with para-nitrogen substituted isocombretastatins” (Eur J Med Chem, 2015).
In brackets after ≈: the same amount, converted by molar mass. Activity calls are given as the source filed them. No cut-off for these calls is given here.

Experiments:
HeLa = assay: Cytotoxicity against human HeLa cells assessed as inhibition of cell proliferation after 72 hrs by XTT assay; format: functional, cell-based
[1] = Aqueous solubility of the compound in phosphate buffer at pH 7 after 48 hrs by spectrophotometric analysis; format: physicochemical
HL-60 = assay: Cytotoxicity against human HL60 cells assessed as inhibition of cell proliferation after 72 hrs by XTT assay; format: functional, cell-based; conditions: HL-60, 72 h
[2] = Inhibition of calf brain tubulin polymerization after 20 mins by spectrophotometric analysis; parameters: species or system Bos taurus
HT-29 [3] = assay: Cytotoxicity against human HT-29 cells assessed as inhibition of cell proliferation after 72 hrs by XTT assay; format: functional, cell-based; conditions: HT-29, 72 h
HT-29 [4] = assay: Cell cycle arrest in human HT-29 cells assessed as accumulation at G2/M phase at 100 nM after 24 hrs by propidium iodide staining-based flow cytometric analysis; format: functional
HCT-116 = assay: Induction of microtubule disruption in human HCT116 cells at 50 nM after 24 hrs by DAPI staining-based confocal microscopic analysis; format: cell-based
HT-29 [5] = assay: Cell cycle arrest in human HT-29 cells assessed as accumulation at G2/M phase at 50 nM after 24 hrs by propidium iodide staining-based flow cytometric analysis; format: functional
HT-29 [6] = assay: Inhibition of autophagy in human HT-29 cells assessed as accumulation of slower migrating LC3-I band at 35 nM after 24 to 72 hrs by Western blot analysis; format: functional, cell-based
HT-29 [7] = assay: Inhibition of autophagy in human HT-29 cells assessed as absence of faster migrating LC3-II band decay at 35 nM after 24 to 72 hrs by Western blot analysis; format: functional, cell-based

SMILES	IC50 (HeLa) [nM]	solubility at 48 h [1] [µg/mL]	IC50 (HL-60) [nM]	IC50 [2] [nM]	IC50 (HT-29 [3]) [nM]	Activity (HT-29 [4])	Activity (HCT-116)	Activity (HT-29 [5]) [%]	inhibition (HT-29 [6])	inhibition (HT-29 [7])
C=C(c1ccc(N2CCCC2)cc1)c1cc(OC)c(OC)c(OC)c1	200	1.3 (≈ 3.83 µM)	400	1100	600	Active	–	–	–	–
COc1cc(C(=O)c2ccc(N(C)C)c(C=O)c2)cc(OC)c1OC	> 1000	8.9 (≈ 25.9 µM)	> 1000	> 20000	> 1000	–	–	–	–	–
C=C(c1ccc(N(C)C)cc1)c1cc(OC)c(OC)c(OC)c1	40	30 (≈ 95.7 µM)	10	1900	70	–	Active	>85	Active	Active
COc1cc(/C(=N/O)c2ccc(N(C)C)cc2)cc(OC)c1OC	800	74 (≈ 224 µM)	600	> 10000	10000	–	–	–	–	–
CCn1c2ccccc2c2cc(C(=O)c3cc(OC)c(OC)c(OC)c3)ccc21	700	2 (≈ 5.14 µM)	700	1600	400	inactive	–	–	–	–
C=C(c1ccc(N(C)C)c(N)c1)c1cc(OC)c(OC)c(OC)c1	500	–	400	> 5000	600	–	–	–	–	–
COc1ccc(/C=C\c2cc(OC)c(OC)c(OC)c2)cc1O [COMBRETASTATIN A4]	–	–	–	3000	30	–	–	–	–	–
C/C=C(/c1cc(OC)c(OC)c(OC)c1)c1ccc2c(c1)c1ccccc1n2CC	700	1.8 (≈ 4.48 µM)	400	1500	560	inactive	–	–	–	–
COc1cc(C(=O)c2ccc(N(C)C)c(N)c2)cc(OC)c1OC	600	–	700	> 5000	900	–	–	–	–	–
C=C(c1ccc(N(C)C)c(C=NO)c1)c1cc(OC)c(OC)c(OC)c1	900	123 (≈ 345 µM)	1000	> 5000	> 1000	–	–	–	–	–
C=C(c1cc(OC)c(OC)c(OC)c1)c1ccc2c(c1)c1ccccc1n2CC	80	2.5 (≈ 6.45 µM)	90	900	200	Active	–	–	–	–
COc1cc(C(=O)c2ccc(N3CCCC3)cc2)cc(OC)c1OC	800	2.6 (≈ 7.62 µM)	800	> 5000	> 1000	–	–	–	–	–
COc1cc(/C(=N/O)c2ccc(N3CCCC3)cc2)cc(OC)c1OC	600	13.7 (≈ 38.4 µM)	400	> 5000	> 1000	–	–	–	–	–
C=C(c1cc(OC)c(OC)c(OC)c1)c1ccc(N(C)C)c(C2OCCO2)c1	600	11 (≈ 28.5 µM)	800	> 5000	> 1000	–	–	–	–	–
COc1cc(C(=O)c2ccc(N(C)C)c([N+](=O)[O-])c2)cc(OC)c1OC	> 1000	3.7 (≈ 10.3 µM)	> 1000	> 20000	> 1000	–	–	–	–	–
C=C(c1ccc(N(C)C)c(C#N)c1)c1cc(OC)c(OC)c(OC)c1	400	84 (≈ 248 µM)	800	> 5000	960	–	–	–	–	–
CCn1c2ccccc2c2cc(/C(=N/O)c3cc(OC)c(OC)c(OC)c3)ccc21	100	4.2 (≈ 10.4 µM)	100	1600	300	inactive	–	–	–	–
COc1cc(C(=O)c2ccc(N(C)C)cc2)cc(OC)c1OC	90	–	200	> 20000	400	–	–	–	–	–
C=C(c1ccc(N(C)C)c(C=O)c1)c1cc(OC)c(OC)c(OC)c1	800	107 (≈ 313 µM)	900	> 10000	> 1000	–	–	–	–	–
